Measured values published in US20240316043A1, “BROMODOMAIN INHIBITORS FOR CANCER THERAPY” (University of Tennessee Research Foundation, priority 2023, published 2024).
“Also recorded” adds a separate entry of the source.

Legend:
MT330 GBM cells = experiment: Cell death ELISA in MT330 GBM cells; assay type: cell-based; conditions: 72 hrs, FIG. 1
Description: Control cells were treated with vehicle (DMSO). Cell death was determined at 72 hr after treatment by a cell death ELISA that quantifies histone-complexed DNA fragments. […]
Parental and BRG1 knockout MT330 cells were treated with bleomycin (0.01 μM) and bromodomain inhibitors […]. After 72 hr, cell death was determined by cell death ELISA.
The biological activity of bromodomain inhibitors was assessed for the ability to enhance TMZ-induced cell death. In brief, MT330 cells were treated with […] of bromodomain inhibitors alone, or in combination with […] of TMZ for 72 hrs, and GBM cell death was determined by a commercial ELISA.

MT330 cells = experiment: γH2Ax immunostaining after bleomycin; assay type: cell-based; conditions: FIG. 8
Description: After 1 hr of bleomycin treatment cell death, cells were fixed and immunostained for γH2Ax. Analysis of immunostaining was performed on at least 1,000 cells on the Lionheart FX imaging system.
Bleomycin is a chemotherapeutic drug that is used to treat various cancers. […] Thus, the ability of bleomycin to induce DNA damage as evidence by immunostaining of MT330 cells and LN229 with γH2Ax was tested. Quantification of cell staining was determined on the Lionheart FX imaging station.

LN229 GBM cells = experiment: γH2Ax immunostaining after TMZ; assay type: cell-based; design: dose or concentration left out as unconfirmed; conditions: 24 hrs, FIG. 11
Description: After treatment for 24 hrs, cells were fixed and immunostained for gH2Ax. Analysis of immunostaining was performed on a laser confocal microscope.
As TMZ is DNA damaging agent, we tested the ability of various bromodomain inhibitors to enhance TMZ-induced DNA damage as evidence by immunostaining of GBM cells with γH2Ax and examination of the staining on a confocal microscope. γH2AX is the phosphorylated version of the histone variant H2Ax and is a highly specific and sensitive marker for monitoring DNA damage initiation and resolution. […] Similar results were obtained with MT330 GBM cells.

BRG1/BRM = conditions: cited from earlier work
[1] = tested on: 12 primary human cell based systems; conditions: cited from earlier work
[2] = tested on: TMZ-sensitive GBM cells and TMZ-resistant GBM cells; conditions: cited from earlier work
GBM tumors = conditions: intracranial GBM animal model; cited from earlier work

## O=C(/C=C/N1C[C@H]2C[C@@H]1CN2c1ccccn1)c1ccccc1O [PFI-3]
MT330 GBM cells; 10 mM inhibitor in combination with 200 mM of TMZ
  enhancement of TMZ-induced cell death: markedly increased the sensitivity of GBM cells to TMZ-induced cell death
MT330 GBM cells; 10 mM of bromodomain inhibitors alone
  cell death, inhibitor alone: did not induce cell death
MT330 cells; PFI-3 (5 μM) alone
  γH2Ax staining, PFI-3 alone: no effect on γH2Ax staining
MT330 cells; pretreated for 1 hr with PFI-3 (5 μM) followed by bleomycin (0.5 and 2 μM)
  γH2Ax staining, PFI-3 pretreatment followed by bleomycin: increased number of both γH2Ax positive cells and signal intensity of staining; also recorded: sensitized GBM cells to DNA damage induced by Bleomycin
LN229 GBM cells
  γH2Ax staining, inhibitor with TMZ: marked increase in γH2Ax staining
BRG1/BRM
  Kd: < 100 nM
[1]
  inhibitory effects against a range of cellular endpoints: inhibitory effects were not observed
[2]
  enhancement of antiproliferation activity and cell death-inducing effects of TMZ: enhanced the antiproliferation activity and cell death-inducing effects of temozolomide
GBM tumors
  survival of animals bearing GBM tumors treated with TMZ: increase in survival
